According to US20090170886A1 (Pfizer Inc, priority 2005, published 2009):
Changes are numbered by the printed parent chain. Where two headings read alike, the source gives them in different places.

What was measured:
[1] = biological target: T1, hAR (human androgen receptor, baculovirus/Sf9 generated extracts) (Homo sapiens, UniProt P10275); assay: AR Binding Assay (competitive binding with 3H-DHT tracer); details: 1 nM 3H-DHT, one hour at 4° C., mean of multiple tests
T1 construct: made in house; host or cells: baculovirus/Sf9 insect cells (crude extract)
T1 sequence (P10275 1-920): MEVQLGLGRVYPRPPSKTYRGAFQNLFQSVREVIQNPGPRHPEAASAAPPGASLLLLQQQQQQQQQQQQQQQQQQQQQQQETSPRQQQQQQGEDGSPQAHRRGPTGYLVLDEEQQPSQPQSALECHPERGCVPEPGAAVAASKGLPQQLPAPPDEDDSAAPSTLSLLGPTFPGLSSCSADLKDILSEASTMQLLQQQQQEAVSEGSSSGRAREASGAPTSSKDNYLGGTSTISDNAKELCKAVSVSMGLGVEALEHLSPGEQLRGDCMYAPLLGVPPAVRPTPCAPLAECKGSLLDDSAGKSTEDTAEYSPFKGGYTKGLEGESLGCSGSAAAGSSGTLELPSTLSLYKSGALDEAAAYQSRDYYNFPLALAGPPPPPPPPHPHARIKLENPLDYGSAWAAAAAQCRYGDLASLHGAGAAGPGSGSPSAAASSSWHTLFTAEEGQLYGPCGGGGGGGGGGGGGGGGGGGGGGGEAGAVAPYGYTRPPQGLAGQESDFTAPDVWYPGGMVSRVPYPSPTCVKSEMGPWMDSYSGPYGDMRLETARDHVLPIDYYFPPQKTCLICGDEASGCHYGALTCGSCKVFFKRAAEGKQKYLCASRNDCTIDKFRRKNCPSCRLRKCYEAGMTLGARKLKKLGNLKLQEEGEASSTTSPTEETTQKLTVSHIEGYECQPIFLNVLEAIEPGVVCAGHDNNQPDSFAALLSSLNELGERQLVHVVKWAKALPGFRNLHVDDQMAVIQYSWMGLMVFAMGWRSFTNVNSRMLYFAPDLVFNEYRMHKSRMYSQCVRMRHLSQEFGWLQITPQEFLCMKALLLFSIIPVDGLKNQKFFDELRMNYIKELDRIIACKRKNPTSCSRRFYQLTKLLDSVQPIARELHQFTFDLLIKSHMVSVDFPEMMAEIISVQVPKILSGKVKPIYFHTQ
Protocol: The compounds of Formula I have affinity for the androgen receptor. […] The description below describes how the assay was carried out.
Competitive binding analysis was performed on baculovirus/Sf9 generated hAR extracts in the presence or absence of different concentrations of test agent and a fixed concentration of ^3H-dihydrotestosterone (^3H-DHT) as tracer. This binding assay method is a modification of a protocol previously described (Liao S., et. al., J. Steroid Biochem., 20:11-17, 1984). Briefly, progressively decreasing concentrations of compounds are incubated in the presence of hAR extract (Chang et al., P.N.A.S., Vol. 89, pp. 5546-5950, 1992), hydroxylapatite, and 1 nM ^3H-DHT for one hour at 4° C. Subsequently, the binding reactions are washed three times to completely remove excess unbound ^3H-DHT. hAR bound ^3H-DHT levels are determined in the presence of compounds (i.e. competitive binding) and compared to levels bound when no competitor is present (i.e. maximum binding). Compound binding affinity to the hAR is expressed as the concentration of compound at which one half of the maximum binding is inhibited. Table II below provides the results that were obtained for selected compounds (reported data is the mean of multiple tests as shown below).

[2] = biological target: T2, androgen receptor in MDA-MB453-MMTV clone 54-19 cells (Homo sapiens, UniProt P10275); assay: AR Antagonist Cell Assay (MMTV-luciferase reporter, DHT-induced); assay type: cell-based; details: MDA-MB453-MMTV clone 54-19, 100 pM DHT, 17 hr; mean of multiple tests
T2 sequence (P10275 1-920 Q868H): T1 sequence (P10275 1-920) with Q868H
Protocol: The compounds ability to antagonize the effects of androgen on the androgen receptor were determined in a whole cell assay as described immediately below.
Cell line: MDA-MB453-MMTV clone 54-19. This cell line is a stable transfected cell line with MDA-MB453 cell background (a human breast tumor cell line expressing androgen receptor). A MMTV minimal promoter containing ARE was first cloned in front of a firefly luciferase reporter gene. Then the cascade was cloned into transfection vector pUV120puro. Electroporation method was used for transfecting MDA-MB-453 cell. Puromycin resistant stable cell line was selected.
Culture medium: DMEM (high glucose, Gibco cat #: 11960-044), 10% FBS, and 1% L-glutamine
Plating medium: DMEM (phenol red free), 10% charcoal treated HyClone serum, 1% L-glutamine
Assay medium: DMEM (phenol red free), 1% charcoal treated HyClone serum, 1% L-glutamine, and 1% penicillin/streptomycin
3× luciferase buffer: 2% beta-mercaptoethanol, 0.6% ATP, 0.0135% luciferine in cell lysis buffer
Cells are maintained in culture medium, splitting cells when they reach 80-90% confluence. To test compounds, 10,000 cells/well are plated to opaque 96 cell culture plate in 100 ul/well plating medium, culture for overnight at 37° C. in cell culture incubator. Carefully remove plating medium, then add 80 ul/well of pre-warmed assay medium, add 10 ul/well testing compound (final concentration at) 1000 nM, 200 nM, 40 nM, 8 nM, 1.6 nM, and 0.32 nM), incubate at 37° C. for 30 minutes. Add 10 ul/well freshly prepared DHT (final concentration at 100 pM) to each well, incubate at 37° C. for 17 hr (overnight). Add 50 ul/well 3× luciferase buffer, incubate at room temperature for 5 minutes, then count on Luminometer. The fold induction over background by 100 pM DHT in the absence of testing compounds is standardized as 100% and experimental result is expressed as percentage of inhibition by testing compounds.
The results are reported as the mean of multiple tests as described below (the numbers of tests are indicated in the footnote). ND denotes that the compound was not tested.

[3] = hAR extract, read-out: AR Binding IC50

What does the source list for `CCC(Oc1ccc(C#N)c(C(F)(F)F)c1)c1cccnc1` (centres unmarked) [Example 90, 4-(1-Pyridin-3-yl-propoxy)-2-trifluoromethyl-benzonitrile]?
IC50 [1, 3]: 167 nM; IC50 [2]: 142 nM

What does the source list for `N#Cc1ccc(OCc2cccc(O)c2)c(Cl)c1` [Example 41, 3-Chloro-4-(3-hydroxy-benzyloxy)-benzonitrile]?
IC50 [1, 3]: 76 nM; IC50 [2]: 286 nM

Which IC50 [1, 3] does the source give for `CCOc1ccccc1COc1ccc(C#N)c(Cl)c1` [Example 68, 2-Chloro-4-(2-ethoxy-benzyloxy)-benzonitrile] here?
The IC50 was 213 nM.

What about the IC50 [2] of the same compound?
Its IC50 is greater than 1000 nM.

`CC(Oc1ccc(C#N)c(C(F)(F)F)c1)c1cccc(O)c1` (single isomer, unassigned; (+)) [Example 10, (+)-4-[1-(3-Hydroxyphenyl)ethoxy]-2-(trifluoromethyl)benzonitrile] was tested. Which IC50 ([1]; AR Binding IC50, hAR extract) did it give?
Its IC50 is 3 nM.

What about the IC50 [2] of the same compound?
Its IC50 is no less than 1000 nM.

Which IC50 ([1]; AR Binding IC50, hAR extract) does the source give for `CC(Oc1ccc(C#N)c(C(F)(F)F)c1)c1ccccc1` (centres unmarked) [Example 53, 4-(1-Phenyl-ethoxy)-2-trifluoromethyl-benzonitrile] here?
Its IC50 is 8 nM.

And the IC50 [2]?
Its IC50 is 55 nM.

With `CCCC(Oc1ccc(C#N)c(C(F)(F)F)c1)c1cncc(O)c1` (centres unmarked) [Example 95, 4-[1-(5-Hydroxy-pyridin-3-yl)-butoxy]-2-trifluoromethyl-benzonitrile] as the compound, how does the IC50 ([1]; AR Binding IC50, hAR extract) read?
Its IC50 is 68 nM.

What about the IC50 [2] of the same compound?
The IC50 was 37 nM.

`COc1cncc(C(C)Oc2ccc(C#N)c(C(F)(F)F)c2)c1` (centres unmarked) [Example 72, 4-[1-(5-Methoxypyridin-3-yl)ethoxy]-2-(trifluoromethyl)benzonitrile] was tested. Which IC50 [1, 3] did it give?
The IC50 was 203 nM.

What about the IC50 [2] of the same compound?
Its IC50 is 441 nM.

`C[C@@H](Oc1ccc(C#N)c(C(F)(F)F)c1)c1ccccc1` [Example 3, (R)-4-(1-Phenyl-ethoxy)-2-trifluoromethyl-benzonitrile] was tested. Which IC50 ([1]; AR Binding IC50, hAR extract) did it give?
The IC50 was 3 nM.

What about the IC50 [2] of the same compound?
The IC50 was 61 nM.

With `CC(C)CC(Oc1ccc(C#N)c(C(F)(F)F)c1)c1ccccn1` (centres unmarked) [Example 83, 4-(3-Methyl-1-pyridin-2-yl-butoxy)-2-trifluoromethyl-benzonitrile] as the compound, how does the IC50 [1, 3] read?
The IC50 was 119 nM.

What about the IC50 [2] of the same compound?
The IC50 was greater than 1000 nM.

How did the IC50 ([1]; AR Binding IC50, hAR extract) turn out when `CC(Oc1ccc(C#N)c(C(F)(F)F)c1)c1cccnc1` (single isomer, unassigned) [Example 34, 4-(1-Pyridin-3-yl-ethoxy)-2-trifluoromethyl-benzonitrile] was run?
Its IC50 is 141 nM.

And the IC50 [2]?
Its IC50 is 94 nM.

What does the source list for `C[C@@H](Oc1ccc(C#N)c(C(F)(F)F)c1)c1ccccn1` [Example 36, (R)-(+)-4-(1-Pyridin-2-yl-ethoxy)-2-trifluoromethyl-benzonitrile]?
IC50 ([1]; AR Binding IC50, hAR extract): 54 nM; IC50 [2]: 28 nM

Which IC50 ([1]; AR Binding IC50, hAR extract) does the source give for `COc1cccc(CCOc2ccc(C#N)c(C(F)(F)F)c2)c1` [Example 77, 4-[2-(3-Methoxy-phenyl)-ethoxy]-2-trifluoromethyl-benzonitrile] here?
Its IC50 is 109 nM.

And the IC50 [2]?
The IC50 was 11 nM.

Which IC50 [1, 3] does the source give for `CC(Oc1ccc(C#N)c(C(F)(F)F)c1)c1ccccc1C(F)(F)F` (centres unmarked) [Example 31, 2-Trifluoromethyl-4-[1-(2-trifluoromethyl-phenyl)-ethoxy]-benzonitrile] here?
Its IC50 is 146 nM.

And the IC50 [2]?
The IC50 was 398 nM.

With `C=CC(Oc1ccc(C#N)c(C(F)(F)F)c1)c1cccc(O)c1` (centres unmarked) [Example 16, 4-{[1-(3-Hydroxyphenyl)prop-2-enyl]oxy}-2-(trifluoromethyl)benzonitrile] as the compound, how does the IC50 ([1]; AR Binding IC50, hAR extract) read?
Its IC50 is 11 nM.

And the IC50 [2]?
Its IC50 is 416 nM.

For `Cc1cccc(C(C)Oc2ccc(C#N)c(C(F)(F)F)c2)c1` (centres unmarked) [Example 28, 4-(1-m-Tolyl-ethoxy)-2-trifluoromethyl-benzonitrile], which IC50 ([1]; AR Binding IC50, hAR extract) is on record?
The IC50 was 50 nM.

What about the IC50 [2] of the same compound?
Its IC50 is 573 nM.

With `CC(Oc1ccc(C#N)cc1Cl)c1ccccc1` (centres unmarked) [Example 57, 3-Chloro-4-(1-phenyl-ethoxy)-benzonitrile] as the compound, how does the IC50 ([1]; AR Binding IC50, hAR extract) read?
The IC50 was 240 nM.

And the IC50 [2]?
The IC50 was 86 nM.

`COc1cc(OCCc2cccc(F)c2)ccc1C#N` [Example 71B, 4-[2-(3-Fluoro-phenyl)-ethoxy]-2-methoxy-benzonitrile] was tested. Which IC50 [1, 3] did it give?
The IC50 was 155 nM.

And the IC50 [2]?
Its IC50 is 41.4 nM.

`N#Cc1ccc(OC(Cc2ccccc2)c2cccnc2)cc1C(F)(F)F` (centres unmarked) [Example 91, 4-(2-Phenyl-1-pyridin-3-yl-ethoxy)-2-trifluoromethyl-benzonitrile] was tested. Which IC50 [1, 3] did it give?
Its IC50 is 116 nM.

And the IC50 [2]?
The IC50 was 342 nM.

Which results are given for `CCC(Oc1ccc(C#N)c(C(F)(F)F)c1)c1cccc(O)c1` (single isomer, unassigned; (-)) [Example 13, (−)4-[1-(3-Hydroxyphenyl)propoxy]-2-(trifluoromethyl)benzonitrile]?
IC50 ([1]; AR Binding IC50, hAR extract): 23 nM; IC50 [2]: 31 nM

`Cc1cccc(C(C)Oc2ccc(C#N)c(C(F)(F)F)c2)c1` (centres unmarked) [Example 51, 4-(1-m-Tolyl-ethoxy)-2-trifluoromethyl-benzonitrile] was tested. Which IC50 ([1]; AR Binding IC50, hAR extract) did it give?
The IC50 was 108 nM.

And the IC50 [2]?
The IC50 was greater than 1000 nM.

With `C#CC(Oc1ccc(C#N)c(C(F)(F)F)c1)c1ccccc1` (centres unmarked) [Example 56, 4-(1-Phenyl-prop-2-ynyloxy)-2-trifluoromethyl-benzonitrile] as the compound, how does the IC50 ([1]; AR Binding IC50, hAR extract) read?
The IC50 was 74 nM.

What about the IC50 [2] of the same compound?
The IC50 was 20 nM.

How did the IC50 ([1]; AR Binding IC50, hAR extract) turn out when `CC(Oc1ccc(C#N)c(C(F)(F)F)c1)c1ccccn1` (racemic) [Example 35, 4-(1-Pyridin-2-yl-ethoxy)-2-trifluoromethyl-benzonitrile] was run?
The IC50 was 180 nM.

And the IC50 [2]?
The IC50 was 254 nM.
